From patent US10864211B2, “Hydroxy isoxazole compounds useful as GPR120 agonists” (Merck Sharp & Dohme Corp., priority 2016, dated 2020)
Counter-ions that a name gives are not always drawn.

What follows are compounds tested against T1, human GPR120 (Homo sapiens, UniProt Q5NUL3) (assay: Human GPR120 IP1 assay (inositol phosphate turnover)). Conditions: IP1 accumulation in CHO-K1 cells stably expressing the short form of human GPR120.
T1 construct: expressed in transfected cells; host or cells: CHO-K1
T1 sequence (Q5NUL3 1-361): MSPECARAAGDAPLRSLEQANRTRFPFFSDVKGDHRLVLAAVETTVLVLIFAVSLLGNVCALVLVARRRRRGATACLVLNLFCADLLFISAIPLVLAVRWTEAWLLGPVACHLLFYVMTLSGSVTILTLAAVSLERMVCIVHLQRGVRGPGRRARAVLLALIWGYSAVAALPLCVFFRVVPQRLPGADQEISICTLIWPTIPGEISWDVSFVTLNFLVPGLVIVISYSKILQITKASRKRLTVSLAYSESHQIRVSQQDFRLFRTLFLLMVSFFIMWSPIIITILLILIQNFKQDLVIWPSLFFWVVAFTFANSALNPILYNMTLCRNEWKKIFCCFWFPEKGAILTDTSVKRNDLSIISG
Type: cell-based
From the text: The binding of small molecule agonists to the G-protein-coupled receptor GPR120 activates phospholipase C, and leads to the generation of inositol 1,4,5-trisphosphate (InsP3 or IP3). IP3 is subsequently de-phosphorylated to IP1, which accumulates in cells and is stable in the presence of lithium chloride.
In the present method, agonist-induced activation of the human and rat GPR120 receptor was monitored by measuring the accumulation of IP1 in CHO-K1 cells that were stably expressing the short form of human GPR120 (Accession #NM_001195755) or HEK293 cells stably expressing rat GPR120 (Accession #NM_001047088). Following agonist addition, GPR120 activation and subsequent accumulation of IP1 was measured using a homogeneous Time Resolved Fluorescence-based ELISA commercially available from CisBio (IP-one ELISA Kit). The IP-One ELISA was a competitive immunoassay which uses IP1 labeled with […] and a terbium cryptate-labeled anti-IP1 monoclonal antibody. […] The signal loss was then back calculated to IP1 concentration using an IP1 standard curve. Determination of IP1 concentration was a direct measure of GPR120 activation and was used to determine compound potency (EC50).
Human GPR120 stable cell-lines were generated in CHO cells. The expression plasmids were transfected using lipofectamine (Life Technologies) following manufacturer's instructions. Stable cell-lines were generated following drug selection and single cell cloning. Rat GPR120 stable cell-lines were generated in HEK cells using the Jump-In™ cell engineering platform (Life Technologies) following manufacturer's instructions. Stable cell-lines were generated following drug selection and single cell cloning.
The assay was performed in 384-well format. CHO cells stably expressing human GPR120 were plated at 20,000 cells per well in growth medium (DMEM/F12, 10% fetal calf serum). HEK293 cells stably expressing rat GPR120 were plated at […] per well in growth medium (DMEM, 10% fetal calf serum). Cell plates were then incubated 16 hours at 37 degrees in a 5% CO2 incubator. Measurement of Inositol Phosphate Turnover (IP1) was performed using the CisBio IP-One kit (Part number 62IPAPEB). After the 16 hour incubation, the growth media was removed by centrifugation using the BlueWasher (AusWasher GUI Ver. v1.0.1.8) Protocol #21-“Light Dry” and 10 μl of stimulation buffer (prepared as described in the kit) was added to each well. In a separate plate, compounds were diluted in DMSO (200-fold over the final concentration in the assay well) and 50 nl was acoustically transferred to the appropriate well in the assay cell plate. The plates were then incubated for 60 minutes at 37 degrees in a 5% CO2 incubator. 10 μl of detection buffer (also prepared as described in the IP-One kit) was added to each well and the plates were incubated at room temperature for 60 minutes in the dark. The plates were then read in a Perkin ElmerEnVision or equivalent reader able to measure FRET. Fluorescent ratio of emission at 665 and 620 nm was then converted to the IP1 concentration by back calculating from an IP1 standard curve prepared at the time of the assay. The data was normalized to % activity using a reference compound, and the EC50 values were determined using a standard 4-parameter fit.

SMILES | EC50 [µM]
Oc1cc(-c2ccc(OC3CC(OCc4ccc(F)cc4F)C3)nc2)on1 (mixture of isomers) [Example 72, 5-[6-({cis-3-[(2,4-difluorobenzyl)oxy]cyclobutyl}oxy)pyridin-3-yl]isoxazol-3-ol (mixture of isomers predominantly cis)] | 0.029
N#Cc1cccc(COC2CC(Oc3ccc(-c4cc(O)no4)cn3)C2)c1 (mixture of isomers) [Example 73, 3-{[(cis-3-{[5-(3-hydroxyisoxazol-5-yl)pyridin-2-yl]oxy}cyclobutyl)oxy]methyl}benzonitrile (mixture of isomers predominantly cis)] | 0.166
Oc1cc(-c2ccc(OC3CC(OCc4cc(F)ccc4C(F)(F)F)C3)nc2)on1 (mixture of isomers) [Example 76, ammonium 5-{6-[(cis-3-{[5-fluoro-2-(trifluoromethyl)benzyl]oxy}cyclobutyl)oxy]pyridin-3-yl)isoxazol-3-olate (mixture of isomers predominantly cis)] | 0.138
N#Cc1cccc(COC2CC(Oc3ccc(-c4cc(O)no4)cn3)C2)c1F (mixture of isomers) [Example 77, ammonium 5-[6-({cis-3-[(3-cyano-2-fluorobenzyl)oxy]cyclobutyl}oxy)pyridin-3-yl]isoxazol-3-olate (mixture of isomers predominantly cis)] | 0.388
CC(OC1CC(Oc2ccc(-c3cc(O)no3)cn2)C1)c1ccccc1 (mixture of isomers) [Example 78, 5-(6-{[3-(1-phenylethoxy)cyclobuty]oxy}pyridin-3-yl)isoxazol-3-ol (mixture of isomers)] | 0.305
Oc1cc(-c2cnc(OC3CC(OCc4cc(C(F)(F)F)ccc4F)C3)cn2)on1 (mixture of isomers) [Example 79, 5-{5-[(cis-3-{[2-fluoro-5-(trifluoromethyl)benzyl]oxy}cyclobutyl)oxy]pyrazin-2-yl}isoxazol-3-ol (mixture of isomers predominantly cis)] | 0.013
Oc1cc(-c2cnc(OC3CC(OCC4CCCCC4)C3)cn2)on1 (mixture of isomers) [Example 80, 5-(5-{[cis-3-(cyclohexylmethoxy)cyclobutyl]oxy}pyrazin-2-yl)isoxazol-3-ol (mixture of isomers predominantly cis)] | 0.023
Oc1cc(-c2cnc(OC3CC(OCC4CCCC4)C3)cn2)on1 (mixture of isomers) [Example 81, sodium 5-(5-{[cis-3-(cyclopentylmethoxy)cyclobutyl]oxy}pyrazin-2-yl)isoxazol-3-olate (mixture of isomers predominantly cis)] | 0.031
Oc1cc(-c2cnc(O[C@H]3C[C@@](F)(c4cc(OC(F)(F)F)ccc4F)C3)cn2)on1 (single isomer, unassigned) [Example 89, 5-[5-({trans-3-fluoro-3-[2-fluoro-5-(trifluoromethoxy)phenyl]-cyclobutyl}oxy)pyrazin-2-yl]isoxazol-3-ol] | 0.051
Oc1cc(-c2ccc(OC3CCC(c4cccc(OC(F)(F)F)c4)C3)nc2)on1 (single isomer, unassigned) [Example 116, 5-(3-hydroxyisoxazol-5-yl)-2-({3-[3-(trifluoromethoxy)-phenyl]cyclopentyl}oxy)pyridinium trifluoroacetate] | 0.018
Oc1cc(-c2ccc(OC3CCC(c4cccc(OC(F)(F)F)c4)C3)nc2)on1 (single isomer, unassigned) [Example 117, 5-(3-hydroxyisoxazol-5-yl)-2-({3-[3-(trifluoromethoxy)phenyl]cyclopentyl}oxy)pyridinium trifluoroacetate] | 0.059
Oc1cc(-c2ccc(OC3CCC(c4cccc(OC(F)(F)F)c4)C3)nc2)on1 (single isomer, unassigned) [Example 118] | 0.034
Oc1cc(-c2ccc(OC3CCC(c4cccc(OC(F)(F)F)c4)C3)nc2)on1 (single isomer, unassigned) [Example 119, 5-(6-((3-(3-(trifluoromethoxy)phenyl)cyclopentyl)oxy)pyridin-3-yl)isoxazol-3-ol] | 0.012
Oc1cc(-c2cnc(O[C@H]3C[C@@H](c4ccc(C(F)F)c(F)c4)C3)cn2)on1 [Example 1, 5-[5-({cis-3-[4-(difluoromethyl)-3-fluorophenyl]cyclobutyl}oxy)pyrazin-2-yl]isoxazol-3-ol] | 0.0087
Oc1cc(-c2cnc(O[C@H]3C[C@H](c4ccc(C(F)F)c(F)c4)C3)cn2)on1 [Example 2, 5-[5-({trans-3-[4-(difluoromethyl)-3-fluorophenyl]cyclobutyl}oxy)pyrazin-2-yl]isoxazol-3-ol] | 0.178
Oc1cc(-c2cnc(O[C@H]3C[C@@H](c4cc(F)cc(OC(F)(F)F)c4)C3)cn2)on1 [Example 3, ammonium 5-[5-({cis-3-[3-fluoro-5-(trifluoromethoxy)-phenyl]cyclobutyl}oxy)pyrazin-2-1]isoxazol-3-olate] | 0.102
Oc1cc(-c2cnc(O[C@H]3C[C@@H](c4ccc(OC5CC5)cc4)C3)cn2)on1 [Example 4, sodium 5-[5-({cis-3-[4-(cyclopropyloxy)phenyl]cyclobutyl}-oxy)pyrazin-2-yl]isoxazol-3-olate] | 0.083
Oc1cc(-c2cnc(O[C@H]3C[C@@H](c4nc(C(F)(F)F)cs4)C3)cn2)on1 [Example 5, 5-[5-({cis-3-[4-(trifluoromethyl)-1,3-thiazol-2-yl]cyclobutyl}oxy)pyrazin-2-yl]isoxazol-3-ol] | 0.082
Oc1cc(-c2cnc(O[C@H]3C[C@@H](c4ncc(C(F)(F)F)s4)C3)cn2)on1 [Example 6, 5-[5-({cis-3-[5-(trifluoromethyl)-1,3-thiazol-2-yl]cyclobutyl}oxy)pyrazin-2-yl]isoxazol-3-ol] | 0.129
Oc1cc(-c2cnc(O[C@H]3C[C@@H](c4ccc(Br)cc4)C3)cn2)on1 [Example 7, ammonium 5-(5-{[cis-3-(4-bromophenyl)cyclobutyl]oxy}pyrazin-2-yl)isoxazol-3-olate] | 0.011
Oc1cc(-c2ccc(O[C@H]3C[C@H](c4ncc(C(F)(F)F)cc4F)C3)nc2)on1 [Example 8, sodium 5-[6-({trans-3-[3-fluoro-5-(trifluoromethyl)pyridin-2-yl]-cyclobutyl}oxy)pyridin-3-yl]isoxazol-3-olate] | 0.303
Oc1cc(-c2ccc(O[C@H]3C[C@@H](c4ncc(C(F)(F)F)cc4F)C3)nc2)on1 [Example 9, sodium 5-[6-({cis-3-[3-fluoro-5-(trifluoromethyl)pyridin-2-yl]-cyclobutyl}oxy)pyridin-3-yl]isoxazol-3-olate] | 0.023
Oc1cc(-c2cnc(O[C@H]3C[C@@H](c4ccc(F)cc4)C3)cn2)on1 [Example 10, sodium 5-(5-{[cis-3-(4-fluorophenyl)cyclobutyl]oxy}pyrazin-2-yl)isoxazol-3-olate] | 0.034
Oc1cc(-c2ccc(O[C@H]3C[C@@H](c4cc(OC(F)(F)F)ccc4F)C3)nc2)on1 [Example 11, ammonium 5-[6-({cis-3-[2-fluoro-5-(trifluoromethoxy)phenyl]cyclo-butyl}oxy)pyridin-3-yl]isoxazol-3-olate] | 0.112
CCc1ccc([C@H]2C[C@@H](Oc3ccc(-c4onc(O)c4F)cn3)C2)cc1 [Example 13, ammonium 5-(6-{[cis-3-(4-ethylphenyl)cyclobuty]oxy}pyridin-3-yl)-4-fluoroisoxazol-3-olate] | 0.181
CCc1ccc([C@H]2C[C@@H](Oc3ccc(-c4cc(O)no4)cn3)C2)cc1 [Example 14, 5-(6-{[cis-3-(4-ethylphenyl)-cyclobutyl]oxy}pyridin-3-yl)isoxazol-3-ol] | 0.019
